The assay in a line: In vitro cytotoxicity in different cell lines using the CellTiter-Blue Cell Viability Assay. The class given is cell-based, human. Particulars: Homo sapiens, 96 h, read-out: Geomean IC50. For orientation: The colour change of resazurin is a common sign of viable cells or microbes.
As usually defined, the IC50 is the concentration that gives 50% inhibition. Take `COc1cc2cc(c1Cl)N(C)C(=O)C[C@H](OC(=O)Cc1ccc(C(C)=O)c(F)c1)[C@]1(C)O[C@H]1[C@H](C)[C@@H]1C[C@@](O)(NC(=O)O1)[C@H](OC)/C=C/C=C(\C)C2` [Compound 5]: the IC50 was found to be 0.9 nM. For the compound `COc1cc2cc(c1Cl)N(C)C(=O)C[C@H](OC(=O)Cc1ccc(C(C)=O)cc1[N+](=O)[O-])[C@]1(C)O[C@H]1[C@H](C)[C@@H]1C[C@@](O)(NC(=O)O1)[C@H](OC)/C=C/C=C(\C)C2` [Compound 6], the concentration for half-maximal inhibition (IC50) was 2.14 nM. Regarding `COc1cc2cc(c1Cl)N(C)C(=O)C[C@H](OC(=O)Cc1ccc(C(C)=O)c([N+](=O)[O-])c1)[C@]1(C)O[C@H]1[C@H](C)[C@@H]1C[C@@](O)(NC(=O)O1)[C@H](OC)/C=C/C=C(\C)C2` [Compound 7], the IC50 was determined as 0.89 nM. For the compound `COc1cc2cc(c1Cl)N(C)C(=O)C[C@H](OC(=O)CCCc1ccc(C(C)=O)cc1)[C@]1(C)O[C@H]1[C@H](C)[C@@H]1C[C@@](O)(NC(=O)O1)[C@H](OC)/C=C/C=C(\C)C2` [Compound 8], the IC50 turned out to be 0.1 nM. Regarding `COc1cc2cc(c1Cl)N(C)C(=O)C[C@H](OC(=O)CCc1ccc(C(C)=O)cc1)[C@]1(C)O[C@H]1[C@H](C)[C@@H]1C[C@@](O)(NC(=O)O1)[C@H](OC)/C=C/C=C(\C)C2` [Compound 9], the half-inhibitory concentration (IC50) amounted to 0.19 nM. With `COc1cc2cc(c1Cl)N(C)C(=O)C[C@H](OC(=O)CN(C)c1ccc(C(C)=O)cc1)[C@]1(C)O[C@H]1[C@H](C)[C@@H]1C[C@@](O)(NC(=O)O1)[C@H](OC)/C=C/C=C(\C)C2` [Compound 10] the figure was 0.3 nM; with `COc1cc2cc(c1Cl)N(C)C(=O)C[C@H](OC(=O)CSc1ccc(C(C)=O)cc1)[C@]1(C)O[C@H]1[C@H](C)[C@@H]1C[C@@](O)(NC(=O)O1)[C@H](OC)/C=C/C=C(\C)C2` [Compound 11], 0.21 nM; with `COc1cc2cc(c1Cl)N(C)C(=O)C[C@H](OC(=O)CSc1ccc(C(C)=O)cc1C)[C@]1(C)O[C@H]1[C@H](C)[C@@H]1C[C@@](O)(NC(=O)O1)[C@H](OC)/C=C/C=C(\C)C2` [Compound 12], 0.76 nM. Take `COc1cc2cc(c1Cl)N(C)C(=O)C[C@H](OC(=O)CSc1ccc(C(C)=O)cc1C(F)(F)F)[C@]1(C)O[C@H]1[C@H](C)[C@@H]1C[C@@](O)(NC(=O)O1)[C@H](OC)/C=C/C=C(\C)C2` [Compound 13]: the IC50 amounted to 0.88 nM. As to `COc1cc2cc(c1Cl)N(C)C(=O)C[C@H](OC(=O)CSc1ccc(C(C)=O)cc1[N+](=O)[O-])[C@]1(C)O[C@H]1[C@H](C)[C@@H]1C[C@@](O)(NC(=O)O1)[C@H](OC)/C=C/C=C(\C)C2` [Compound 14], the IC50 was determined as 1.54 nM. With `COc1cc2cc(c1Cl)N(C)C(=O)C[C@H](OC(=O)CSc1ccc(C(C)=O)cc1Cl)[C@]1(C)O[C@H]1[C@H](C)[C@@H]1C[C@@](O)(NC(=O)O1)[C@H](OC)/C=C/C=C(\C)C2` [Compound 15], the IC50 came to 0.18 nM.

`COc1cc2cc(c1Cl)N(C)C(=O)C[C@H](OC(=O)CSc1ccc(C(C)=O)cc1Br)[C@]1(C)O[C@H]1[C@H](C)[C@@H]1C[C@@](O)(NC(=O)O1)[C@H](OC)/C=C/C=C(\C)C2` [Compound 16]: the IC50 was 0.32 nM. Take `COc1cc(C(C)=O)ccc1SCC(=O)O[C@H]1CC(=O)N(C)c2cc(cc(OC)c2Cl)C/C(C)=C/C=C/[C@@H](OC)[C@@]2(O)C[C@H](OC(=O)N2)[C@@H](C)[C@@H]2O[C@@]12C` [Compound 17]: the concentration for half-maximal inhibition (IC50) came to 0.45 nM. As to `COc1cc2cc(c1Cl)N(C)C(=O)C[C@H](OC(=O)COc1ccc(C(C)=O)cc1)[C@]1(C)O[C@H]1[C@H](C)[C@@H]1C[C@@](O)(NC(=O)O1)[C@H](OC)/C=C/C=C(\C)C2` [Compound 18], the concentration for half-maximal inhibition (IC50) amounted to 0.13 nM. Regarding `COc1cc2cc(c1Cl)N(C)C(=O)C[C@H](OC(=O)C(C)(C)Oc1ccc(C(C)=O)cc1)[C@]1(C)O[C@H]1[C@H](C)[C@@H]1C[C@@](O)(NC(=O)O1)[C@H](OC)/C=C/C=C(\C)C2` [Compound 19], the IC50 was 1.12 nM.

These data come from US11572373B2, “Maytansinoid-based drug delivery systems” (LADRX CORPORATION, priority 2017, dated 2023).
